Results taken from US8551966B2, “Chemical compounds” (priority 2011, dated 2013).
Like-named read-outs stand apart in the source and are kept apart here.

Key:
VACV-WR in BSC-1 cells = assay: microbe, parasite or virus in culture; format: cell-based, vaccinia virus; conditions: read-out: VV plaque size IC50 μM (c)
[1] = system: wildtype measles virus strain WTFb in B95a marmoset B lymphocytes; assay: Measles syncytium reduction assay; format: cell-based; conditions: for Measles IC100/μM (b): concentration giving total suppression of syncytia formation, B95a cells, 50 syncytium forming units per well; for potency with respect to measles virus: statement in words on Table I data
[2] = system: recombinant vaccinia virus strain WR (VACV-WR) 'v3' expressing firefly luciferase, in RK13 cells; assay: microbe, parasite or virus in culture; format: cell-based; conditions: for activity at 10 µM: Orthopoxvirus vaccinia, RK-13, 2 h, read-out: VV % activity at 10 μM (a)

Row | SMILES | activity at 10 µM [2] [%] | other results
1 | CCCCCOCCCCCCCCCc1cc2cn([C@H]3CC[C@@H](CO)O3)c(=O)nc2o1 [Cf 2095, reference compound] | – | IC50 (VACV-WR in BSC-1 cells): 1.5 µM; Measles IC100/μM (b) [1]: Inactive; potency with respect to measles virus [1]: inactive; VV % activity at 10 μM (a) [2]: 75%
2 | CCCCCCc1cc2cn([C@@H]3CC[C@H](CO)O3)c(=O)nc2o1 [Cf 3153, 3-(2′,3′-dideoxy-ribo-β-L-furanosyl)-6-hexylfuro[2,3-d]pyrimidin-2(3H)-one] | 50 | –
3 | CCCCCCCCc1cc2cn([C@@H]3CC[C@H](CO)O3)c(=O)nc2o1 [Cf 3154, 3-(2′,3′-dideoxy-ribo-β-L-furanosyl)-6-octylfuro[2,3-d]pyrimidin-2(3H)-one] | 23 | potency with respect to vaccinia virus compared to comparative compound Cf2095 [2]: greatly enhanced potency
4 | CCCCCCCCCCc1cc2cn([C@@H]3CC[C@H](CO)O3)c(=O)nc2o1 [Cf 3155, 3-(2′,3′-dideoxy-ribo-β-Lfuranosyl)-6-decylfuro[2,3-d]pyrimidin-2(3H)-one] | 24 | potency with respect to vaccinia virus compared to comparative compound Cf2095 [2]: greatly enhanced potency
5 | CCCCCCCCCCCCc1cc2cn([C@@H]3CC[C@H](CO)O3)c(=O)nc2o1 [Cf 3156, 3-(2′,3′-dideoxy-ribo-β-L-furanosyl)-6-dodecylfuro[2,3-d]-pyrimidin-2(3H)-one] | 65 | –
6 | CCCCCCCc1cc2cn([C@@H]3CC[C@H](CO)O3)c(=O)nc2o1 [Cf 3174, 3-(2′,3′-dideoxy-ribo-β-L-furanosyl)-6-septylfuro[2,3-d]pyrimidin-2(3H)-one] | 41 | –
7 | CCCCCCCCCc1cc2cn([C@@H]3CC[C@H](CO)O3)c(=O)nc2o1 [Cf 3175, 3-(2′,3′-dideoxy-ribo+L-furanosyl)-6-nonylfuro[2,3-d]pyrimidin-2(3H)-one] | 24 | Measles IC100/μM (b) [1]: 5 to 10 µM; potency with respect to vaccinia virus compared to comparative compound Cf2095 [2]: greatly enhanced potency
8 | CCCCc1ccc(-c2cc3cn([C@@H]4CC[C@H](CO)O4)c(=O)nc3o2)cc1 [Cf 3176, 3-(2′,3′-dideoxy-ribo-β-L-furanosyl)-6-(4-n-butylphenyl)[2,3-d]pyrimidin-2(3H)-one] | 44 | –
9 | CCCCCc1ccc(-c2cc3cn([C@@H]4CC[C@H](CO)O4)c(=O)nc3o2)cc1 [Cf 3177, 3-(2′,3′-dideoxy-ribo-D-L-furanosyl)-6-(4-n-pentylphenyl) [2,3-d]pyrimidin-2(3H)-one] | 47 | –
10 | CCCOCCCCCCCCCc1cc2cn([C@@H]3CC[C@H](CO)O3)c(=O)nc2o1 [Cf 3204, 3-(2′,3′-dideoxy-ribo-β-L-furanosyl)-6-propyloxynonylfuro[2,3-d]pyrimidin-2(3H)-one] | 41 | –
11 | CCCCOCCCCCCCCCc1cc2cn([C@@H]3CC[C@H](CO)O3)c(=O)nc2o1 [Cf 3207, 3-(2′,3′-dideoxy-ribo-β-L-furanosyl)-6-butyloxynonylfuro[2,3-d]pyrimidin-2(3H)-one] | 29 | –
12 | CCCCCOCCCCCCCCCc1cc2cn([C@@H]3CC[C@H](CO)O3)c(=O)nc2o1 [Cf 3208, 3-(2′,3′-dideoxy-ribo-β-L-furanosyl)-6-pentyloxynonylfuro[2,3-d]pyrimidin-2(3H)-one] | 24 | IC50 (VACV-WR in BSC-1 cells; Orthopoxvirus vaccinia, BSC-1, 72 h): 0.1 µM; Measles IC100/μM (b) [1]: 1 to 5 µM; potency with respect to measles virus [1]: significant potency; potency with respect to vaccinia virus compared to comparative compound Cf2095 [2]: greatly enhanced potency
13 | CCCCCCOCCCCCCCCCc1cc2cn([C@@H]3CC[C@H](CO)O3)c(=O)nc2o1 [Cf 3209, 3-(2′,3′-dideoxy-ribo-β-L-furanosyl)-6-hexyloxynonylfuro[2,3-d]pyrimidin-2(3H)-one] | 46 | –
14 | CCOCCCCCCCCCc1cc2cn([C@@H]3CC[C@H](CO)O3)c(=O)nc2o1 [Cf 3210, 3-(2′,3′-dideoxy-ribo-O-L-furanosyl)-6-ethyloxynonylfuro[2,3-d]pyrimidin 2(3H)-one] | 72 | –
15 | CCCCCCOCCCCCCCCc1cc2cn([C@@H]3CC[C@H](CO)O3)c(=O)nc2o1 [Cf 3230, 3-(2′,3′-dideoxy-ribo-β-L-furanosyl)-6-hexyloxyoctylfuro[2,3-d]pyrimidin-2(3H)-one] | 29 | –
16 | CCCCCCCCCCOCCCCc1cc2cn([C@@H]3CC[C@H](CO)O3)c(=O)nc2o1 [Cf 3231, 3-(2′,3′-dideoxy-ribo-β-L-furanosyl)-6-decyloxybutylfuro[2,3-d]pyrimidin-2(3H)-one] | 26 | –
17 | CCCCCCCCCCCCCOCc1cc2cn([C@@H]3CC[C@H](CO)O3)c(=O)nc2o1 [Cf 3232, 3-(2′,3′-dideoxy-ribo-β-L-furanosyl)-6-tridecyloxymethylfuro[2,3-d]pyrimidin-2(3H)-one] | 45 | Measles IC100/μM (b) [1]: 1 to 5 µM; potency with respect to measles virus [1]: significant potency
18 | CCCCCOCCCCCCCCCc1cc2cn([C@@H]3CC[C@H](CO)O3)c(=O)nc2n1C [Cf 3242, 3-(2′,3′-dideoxy-ribo-β-L-furanosyl)-6-pentyloxynonyl-N-methyl-pyrrolo[2,3-d]pyrimidin-2(3H)-one] | 15 | Measles IC100/μM (b) [1]: 5 to 10 µM; potency with respect to vaccinia virus compared to comparative compound Cf2095 [2]: greatly enhanced potency
19 | CCCCCOCCCCCCCCCc1cc2cn([C@@H]3CC[C@H](CO)O3)c(=O)nc2[nH]1 [Cf 3253, 3-(2′,3′-dideoxy-ribo-β-L-furanosyl)-6-pentyloxynonyl-pyrrolo[2,3-d]pyrimidin-2(3H)-one] | 52 | –
20 | COCCCCCCCCCCCCCc1cc2cn([C@@H]3CC[C@H](CO)O3)c(=O)nc2o1 [Cf 3254, 3-(2′,3′-dideoxy-ribo-β-L-furanosyl)-6-methyloxytridecylfuro[2,3-d]pyrimidin-2(3H)-one] | 59 | –
